Laboratory results: ChEMBL document CHEMBL1201862, “PubChem BioAssay data set” (2004)
Active and inactive are the calls of the source.

Columns and labels:
[1] = inhibitors of intracellular T. cruzi replication, confirmation, NIH3T3 host cells, beta-gal luminescence (AID 2044); format: functional, cell-based;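 further: intracellular parasites grown in NIH/3T3 mouse fibroblasts as host cells; luminescent beta-galactosidase reporter signal from transgenic T. cruzi replicating inside host cells; inhibitors lower the luminescence signal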
[2] = cytotoxicity toward NIH3T3 fibroblasts, dose response, counter-screen, cell-based, ATP luminescence, mouse fibroblasts (AID 2010); format: functional;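 further: cells exposed to compound for about 90 hours before reading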
[3] = target: T1, High affinity choline transporter 1 (Homo sapiens, UniProt Q9GZV3); assay: CHT inhibitors, dose response, cell-based, 5-point CRC, membrane potential dye (AID 504840); format: functional
T1 sequence (Q9GZV3 whole entry): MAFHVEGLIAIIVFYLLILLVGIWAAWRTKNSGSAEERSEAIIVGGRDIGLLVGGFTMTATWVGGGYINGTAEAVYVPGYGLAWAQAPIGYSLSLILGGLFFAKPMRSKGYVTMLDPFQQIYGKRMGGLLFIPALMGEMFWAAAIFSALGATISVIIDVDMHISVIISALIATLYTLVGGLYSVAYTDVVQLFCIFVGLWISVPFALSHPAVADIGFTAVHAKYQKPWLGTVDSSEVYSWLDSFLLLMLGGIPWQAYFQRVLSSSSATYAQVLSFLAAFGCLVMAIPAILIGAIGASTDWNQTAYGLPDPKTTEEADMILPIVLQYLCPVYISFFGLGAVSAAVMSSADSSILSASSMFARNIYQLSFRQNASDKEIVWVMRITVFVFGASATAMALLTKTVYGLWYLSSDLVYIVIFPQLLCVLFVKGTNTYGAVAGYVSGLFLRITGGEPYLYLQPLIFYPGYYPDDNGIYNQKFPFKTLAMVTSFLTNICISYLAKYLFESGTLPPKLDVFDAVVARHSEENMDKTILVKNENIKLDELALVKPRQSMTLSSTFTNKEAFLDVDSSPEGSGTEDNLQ

Protein skinhead-1 = target: T2, Protein skinhead-1 (Caenorhabditis elegans, UniProt P34707); format: functional
T2 sequence (P34707 whole entry): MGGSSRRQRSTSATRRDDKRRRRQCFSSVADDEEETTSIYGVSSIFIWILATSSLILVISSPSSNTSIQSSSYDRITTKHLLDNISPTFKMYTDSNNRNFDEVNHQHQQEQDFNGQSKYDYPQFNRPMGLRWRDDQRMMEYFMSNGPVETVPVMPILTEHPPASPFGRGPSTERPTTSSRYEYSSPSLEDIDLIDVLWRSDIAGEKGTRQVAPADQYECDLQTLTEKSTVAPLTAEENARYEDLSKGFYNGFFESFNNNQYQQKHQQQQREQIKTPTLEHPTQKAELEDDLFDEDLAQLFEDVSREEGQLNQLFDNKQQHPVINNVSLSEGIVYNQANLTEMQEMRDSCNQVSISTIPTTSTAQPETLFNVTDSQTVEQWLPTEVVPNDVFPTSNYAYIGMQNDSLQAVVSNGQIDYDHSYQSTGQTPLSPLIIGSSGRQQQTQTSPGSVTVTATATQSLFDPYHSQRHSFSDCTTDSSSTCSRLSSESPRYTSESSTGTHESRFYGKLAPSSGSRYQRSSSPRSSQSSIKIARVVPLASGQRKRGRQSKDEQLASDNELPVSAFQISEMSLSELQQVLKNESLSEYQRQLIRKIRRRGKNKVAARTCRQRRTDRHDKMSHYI

[4] = target: T3, DNA repair and recombination protein RAD54-like (Homo sapiens, UniProt Q92698); assay: inhibitors of human RAD54 branch migration, confirmation, biochemical, fluorescence, cherry-picked samples, dose series (AID 651657); format: functional
T3 sequence (Q92698 whole entry): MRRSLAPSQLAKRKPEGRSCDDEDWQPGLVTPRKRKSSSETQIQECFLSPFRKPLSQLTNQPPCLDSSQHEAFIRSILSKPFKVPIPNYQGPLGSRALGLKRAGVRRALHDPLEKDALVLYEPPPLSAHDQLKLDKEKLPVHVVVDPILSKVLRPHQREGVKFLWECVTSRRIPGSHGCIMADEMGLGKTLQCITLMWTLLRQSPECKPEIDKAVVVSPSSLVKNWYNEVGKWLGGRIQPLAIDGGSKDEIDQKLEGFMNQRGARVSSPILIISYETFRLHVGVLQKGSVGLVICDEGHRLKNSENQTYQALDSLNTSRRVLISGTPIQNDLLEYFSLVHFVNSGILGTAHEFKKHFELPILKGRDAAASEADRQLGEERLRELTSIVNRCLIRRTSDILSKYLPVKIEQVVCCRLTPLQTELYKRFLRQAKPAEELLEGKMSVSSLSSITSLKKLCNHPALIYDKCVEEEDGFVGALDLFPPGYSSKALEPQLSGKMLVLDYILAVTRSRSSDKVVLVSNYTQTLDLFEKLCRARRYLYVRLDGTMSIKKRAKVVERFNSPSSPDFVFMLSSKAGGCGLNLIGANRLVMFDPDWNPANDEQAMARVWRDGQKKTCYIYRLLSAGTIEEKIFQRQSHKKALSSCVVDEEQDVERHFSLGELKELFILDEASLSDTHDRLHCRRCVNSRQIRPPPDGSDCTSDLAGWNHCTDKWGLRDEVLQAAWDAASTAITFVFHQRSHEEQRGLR

[5] = target: T4, DNA repair protein RAD52 homolog (Homo sapiens, UniProt P43351); format: functional, biochemical
T4 sequence (P43351 whole entry): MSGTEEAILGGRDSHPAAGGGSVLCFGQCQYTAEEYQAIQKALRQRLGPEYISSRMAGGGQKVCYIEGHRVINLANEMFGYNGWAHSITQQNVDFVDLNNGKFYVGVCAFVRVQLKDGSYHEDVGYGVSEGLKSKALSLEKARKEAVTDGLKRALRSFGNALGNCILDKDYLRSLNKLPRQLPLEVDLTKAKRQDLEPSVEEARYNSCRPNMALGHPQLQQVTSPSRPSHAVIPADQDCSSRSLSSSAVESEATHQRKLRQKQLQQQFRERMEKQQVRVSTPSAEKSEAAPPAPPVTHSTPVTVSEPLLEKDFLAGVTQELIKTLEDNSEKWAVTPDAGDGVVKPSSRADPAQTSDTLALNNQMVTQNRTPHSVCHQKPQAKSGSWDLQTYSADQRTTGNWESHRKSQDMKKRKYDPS

Hexokinase = target: T5, Hexokinase (Trypanosoma brucei, UniProt Q38C41); assay: Confirmation assay for inhibitors of Trypanosoma brucei hexokinase 1-Analogue-first series. [Related pubchem assays (depositor defined):AID1430, AID1632, AID2516, AID2560, AID2579, AID2600, AID449725, AID492951]; format: functional
T5 sequence (Q38C41 whole entry): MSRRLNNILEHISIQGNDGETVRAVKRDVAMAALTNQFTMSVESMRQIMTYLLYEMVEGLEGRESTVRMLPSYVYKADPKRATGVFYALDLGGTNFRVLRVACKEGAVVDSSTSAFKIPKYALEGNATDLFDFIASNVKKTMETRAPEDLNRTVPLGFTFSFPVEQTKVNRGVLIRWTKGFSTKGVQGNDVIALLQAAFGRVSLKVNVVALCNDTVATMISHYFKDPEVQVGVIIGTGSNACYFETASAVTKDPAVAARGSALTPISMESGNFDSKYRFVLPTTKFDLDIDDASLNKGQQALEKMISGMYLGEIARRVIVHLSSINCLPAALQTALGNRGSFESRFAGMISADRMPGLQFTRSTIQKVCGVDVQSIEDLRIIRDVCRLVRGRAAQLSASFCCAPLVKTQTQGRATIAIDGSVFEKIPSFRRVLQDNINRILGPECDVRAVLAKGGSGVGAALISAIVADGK

[6] = target: Glucose-6-phosphate 1-dehydrogenase (Homo sapiens, UniProt P11413); assay: human G6PD enzyme inhibitors, dose response, selectivity assay for P. falciparum G6PD inhibitor project, biochemical, fluorescence (AID 504792); format: functional
[7] = HeLa cell cytotoxicity, dose response, cytotoxicity control for MgcRacGAP inhibitor project (AID 624300); format: functional
[8] = target: T6, Rac GTPase-activating protein 1 (Homo sapiens, UniProt Q9H0H5); assay: MgcRacGAP GTPase-activating activity inhibitors, confirmation, biochemical, ADP Hunter fluorescence, primary and confirmatory (AID 624330); format: functional
T6 sequence (Q9H0H5 whole entry): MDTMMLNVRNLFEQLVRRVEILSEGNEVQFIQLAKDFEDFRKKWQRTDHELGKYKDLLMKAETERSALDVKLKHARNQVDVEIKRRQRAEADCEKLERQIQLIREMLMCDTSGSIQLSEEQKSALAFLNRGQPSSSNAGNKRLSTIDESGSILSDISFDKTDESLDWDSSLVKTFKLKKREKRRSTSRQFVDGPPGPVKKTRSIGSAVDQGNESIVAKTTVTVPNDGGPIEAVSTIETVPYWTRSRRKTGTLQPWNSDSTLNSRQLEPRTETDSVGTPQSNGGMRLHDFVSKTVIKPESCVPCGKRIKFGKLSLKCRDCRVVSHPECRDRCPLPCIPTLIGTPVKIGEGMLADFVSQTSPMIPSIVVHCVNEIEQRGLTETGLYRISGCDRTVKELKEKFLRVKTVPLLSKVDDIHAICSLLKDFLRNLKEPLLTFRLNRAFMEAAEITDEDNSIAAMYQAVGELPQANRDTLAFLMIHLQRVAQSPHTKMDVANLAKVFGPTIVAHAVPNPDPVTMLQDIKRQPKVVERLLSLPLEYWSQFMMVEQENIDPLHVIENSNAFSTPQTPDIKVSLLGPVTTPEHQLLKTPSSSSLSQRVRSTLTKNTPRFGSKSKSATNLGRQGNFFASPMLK

cells [9] = format: functional, cell-based
cells [10] = format: functional, cell-based; remark: listed apart in the source
[11] = target: T7, Short transient receptor potential channel 4 (Mus musculus, UniProt Q9QUQ5); assay: mouse TRPC4 channel inhibitors, dose response, cell-based, HEK293 TRPC4/mu-opioid, Fluo-4 calcium (AID 434942); format: functional;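 further: potency of inhibitors blocking the TRPC4 calcium response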
T7 sequence (Q9QUQ5 whole entry): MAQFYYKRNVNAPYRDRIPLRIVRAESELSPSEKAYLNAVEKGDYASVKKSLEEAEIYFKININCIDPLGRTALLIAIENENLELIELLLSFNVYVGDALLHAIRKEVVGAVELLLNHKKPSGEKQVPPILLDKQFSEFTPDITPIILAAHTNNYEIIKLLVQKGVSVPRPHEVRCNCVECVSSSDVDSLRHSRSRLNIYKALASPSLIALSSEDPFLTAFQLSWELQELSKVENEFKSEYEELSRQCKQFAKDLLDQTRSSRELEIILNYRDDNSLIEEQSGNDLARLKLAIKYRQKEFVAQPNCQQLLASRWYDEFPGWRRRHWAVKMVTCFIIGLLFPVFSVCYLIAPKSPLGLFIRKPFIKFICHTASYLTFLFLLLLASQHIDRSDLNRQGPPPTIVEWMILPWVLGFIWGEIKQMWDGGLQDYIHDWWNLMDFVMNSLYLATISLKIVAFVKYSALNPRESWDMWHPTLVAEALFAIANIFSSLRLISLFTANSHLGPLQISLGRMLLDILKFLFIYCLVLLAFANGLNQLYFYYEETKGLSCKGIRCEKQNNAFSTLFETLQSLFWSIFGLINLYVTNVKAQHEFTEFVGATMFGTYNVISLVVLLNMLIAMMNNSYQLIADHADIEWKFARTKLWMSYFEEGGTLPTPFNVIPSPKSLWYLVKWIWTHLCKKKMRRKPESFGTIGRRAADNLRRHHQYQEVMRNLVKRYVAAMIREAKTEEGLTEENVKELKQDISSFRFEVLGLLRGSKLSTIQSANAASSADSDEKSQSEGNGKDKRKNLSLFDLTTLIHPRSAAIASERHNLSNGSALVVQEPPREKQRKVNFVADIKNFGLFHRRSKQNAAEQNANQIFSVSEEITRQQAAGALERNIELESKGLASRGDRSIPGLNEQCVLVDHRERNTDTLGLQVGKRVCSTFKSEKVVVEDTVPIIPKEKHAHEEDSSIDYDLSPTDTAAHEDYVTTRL

INS1 = assay: beta cell apoptosis inhibitors, cytokine rescue, dose response, luminescence, retest (AID 449756); format: functional, cell-based; conditions: Rattus norvegicus;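 further: cell death triggered by IL-1 beta plus TNF-alpha plus IFN-gamma mixture; protective hits raise ATP signal compared with cytokine alone wells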
[12] = microbe, parasite or virus in culture; format: functional; conditions: Mycobacterium tuberculosis
[13] = Luminescence Cell-Based Dose Retest to Confirm Inhibitors of Cancer Stem Cells. [Related pubchem assays (depositor defined):AID2717, AID2721]; format: functional; conditions: Homo sapiens
[14] = Fluorescence-based cell-based high throughput dose response assay for inhibitors of the interaction of nucleotide-binding oligomerization domain containing 2 (NOD2) and the receptor-interacting serine-threonine kinase 2 (RIPK2).; format: functional; conditions: Homo sapiens
Paired box protein Pax-8 = Paired box protein Pax-8 (Homo sapiens, UniProt Q06710); assay: inhibitors of PAX8-driven TPO luciferase reporter, dose response, RMG-I cells, cherry-pick (AID 687027); format: functional, cell-based;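 further: luciferase reporter driven by Pax8 target thyroperoxidase promoter measured by SteadyGlo luminescence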
Chain of Paired box protein Pax-8 (Q06710 whole entry): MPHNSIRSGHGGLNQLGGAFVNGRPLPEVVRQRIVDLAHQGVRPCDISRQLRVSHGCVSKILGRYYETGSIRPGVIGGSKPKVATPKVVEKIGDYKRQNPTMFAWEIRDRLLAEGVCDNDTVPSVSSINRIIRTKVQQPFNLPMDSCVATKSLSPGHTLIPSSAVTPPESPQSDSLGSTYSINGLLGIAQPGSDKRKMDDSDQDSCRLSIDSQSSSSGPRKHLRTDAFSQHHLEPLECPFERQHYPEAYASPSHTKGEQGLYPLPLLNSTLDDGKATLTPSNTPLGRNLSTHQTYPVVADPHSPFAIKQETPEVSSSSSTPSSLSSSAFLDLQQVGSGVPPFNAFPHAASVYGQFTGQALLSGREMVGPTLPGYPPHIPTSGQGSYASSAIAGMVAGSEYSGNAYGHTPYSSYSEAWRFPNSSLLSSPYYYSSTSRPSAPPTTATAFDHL

Chain of Glucose-6-phosphate 1-dehydrogenase (P11413 whole entry): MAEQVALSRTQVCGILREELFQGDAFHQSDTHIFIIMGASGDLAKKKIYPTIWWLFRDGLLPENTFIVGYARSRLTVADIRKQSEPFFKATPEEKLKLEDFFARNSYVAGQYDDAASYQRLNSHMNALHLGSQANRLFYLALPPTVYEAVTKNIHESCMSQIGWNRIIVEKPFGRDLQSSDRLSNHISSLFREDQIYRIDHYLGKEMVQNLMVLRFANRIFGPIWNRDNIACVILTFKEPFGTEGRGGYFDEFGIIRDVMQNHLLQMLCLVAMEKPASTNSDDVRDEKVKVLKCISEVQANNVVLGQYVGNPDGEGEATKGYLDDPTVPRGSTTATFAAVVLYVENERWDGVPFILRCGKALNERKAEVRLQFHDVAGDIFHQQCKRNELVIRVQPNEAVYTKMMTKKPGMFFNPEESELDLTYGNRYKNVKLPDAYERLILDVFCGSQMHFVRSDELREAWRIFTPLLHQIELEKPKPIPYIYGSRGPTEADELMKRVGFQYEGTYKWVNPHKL

| SMILES | EC50 [1] | EC50 [2] | AC50 [4] | AC50 [5] | CC50 [7] | IC50 [8] | other results |
| --- | --- | --- | --- | --- | --- | --- | --- |
| CCN1CCN(c2cc(C)c3cc(NC(=S)N4CCCCC4)ccc3n2)CC1 | 2.28 µM (active) | > 60 µM (not active) | 100 µM (inactive) | 14.1 µM (active) |  |  | IC50 [3]: 12.6 µM (active); IC50 (Protein skinhead-1): > 100 µM (inactive) |
| O=c1c2ccccc2sn1-c1ccccc1F |  |  |  |  | 72.2 µM (active) | 41 µM (active) | IC50 (Hexokinase): 2.26 µM (active); IC50 [6]: 17.8 µM (active) |
| c1ccc(CNc2c3ccccc3nc3ccccc23)cc1 | 0.931 µM (active) | 8.87 µM (active) | 5.21 µM (active) | 12.1 µM (active) |  |  | EC50 (cells [9]): > 350 µM (not active); EC50 (cells [10]): > 350 µM (not active); EC50 [11]: 1.33 µM (active); AC50 (INS1): 3.79 µM (active) |
| Cc1cc(-c2ccccc2)nc(N/N=C/c2ccc(N(C)C)cc2)n1 |  |  |  |  | 100 µM (active) | 74.7 µM (active) |  |
| CN1CCN(c2ccc(S(=O)(=O)N3CCCCC3)cc2NC(=O)/C=C/c2ccc(Cl)c([N+](=O)[O-])c2)CC1 | 1.85 µM (active) | > 60 µM (not active) |  |  |  |  | CC50 [12]: 23.3 µM (active); AC50 [13]: 5.48 µM (active); IC50 [14]: 6.18 µM (active); AC50 (Paired box protein Pax-8): 12.6 µM (active) |
